# In US12534465B2, “5H-pyrrolo[3,2-d]pyrimidine-2,4-diamino compounds and antibody conjugates thereof” (SUTRO BIOPHARMA, INC., priority 2019, dated 2026):
# Target: T1, human TLR8 (Homo sapiens, UniProt Q9NR97)
# T1 construct: host or cells: HEK293
# T1 sequence (Q9NR97 27-1041): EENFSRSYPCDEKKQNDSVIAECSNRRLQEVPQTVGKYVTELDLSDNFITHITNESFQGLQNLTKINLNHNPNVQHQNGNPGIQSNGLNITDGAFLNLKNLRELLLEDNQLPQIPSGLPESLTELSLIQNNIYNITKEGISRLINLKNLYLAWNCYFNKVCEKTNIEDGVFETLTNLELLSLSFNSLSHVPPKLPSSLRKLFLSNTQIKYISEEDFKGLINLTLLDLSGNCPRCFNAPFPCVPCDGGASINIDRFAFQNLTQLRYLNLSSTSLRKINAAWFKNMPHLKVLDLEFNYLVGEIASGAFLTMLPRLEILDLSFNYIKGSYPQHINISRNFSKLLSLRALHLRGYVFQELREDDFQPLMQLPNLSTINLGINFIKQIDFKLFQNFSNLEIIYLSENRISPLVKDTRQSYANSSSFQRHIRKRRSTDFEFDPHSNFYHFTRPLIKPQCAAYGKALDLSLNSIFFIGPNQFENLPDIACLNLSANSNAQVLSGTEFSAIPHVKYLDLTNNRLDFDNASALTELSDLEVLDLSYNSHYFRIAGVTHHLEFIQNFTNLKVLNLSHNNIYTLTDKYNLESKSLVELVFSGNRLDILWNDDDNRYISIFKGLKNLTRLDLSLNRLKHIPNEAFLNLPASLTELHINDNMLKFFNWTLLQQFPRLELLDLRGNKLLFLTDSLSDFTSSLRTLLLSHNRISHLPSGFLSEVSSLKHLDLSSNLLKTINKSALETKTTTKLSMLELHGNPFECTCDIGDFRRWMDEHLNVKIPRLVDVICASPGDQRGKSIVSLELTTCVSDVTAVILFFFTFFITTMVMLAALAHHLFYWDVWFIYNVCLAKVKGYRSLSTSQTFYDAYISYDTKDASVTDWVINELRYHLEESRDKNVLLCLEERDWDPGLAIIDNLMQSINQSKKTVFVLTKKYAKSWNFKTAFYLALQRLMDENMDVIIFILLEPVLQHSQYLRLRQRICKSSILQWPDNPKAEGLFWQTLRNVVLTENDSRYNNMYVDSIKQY
# Assay: HEK293-humanTLR8 SEAP reporter assay (Example 8)
# Assay type: cell-based
# Details: HEK293-hTLR8 SEAP reporter cells, 24 hrs
# Protocol: In this example, the in vitro activity of compounds to activate human TLR7 (or human TLR8 or mouse TLR7) pathway was evaluated on HEK293 reporter cells transfected with human TLR7 (or human TLR8 or mouse TLR7) and an inducible SEAP (secreted embryonic alkaline phosphatase) reporter gene. The SEAP reporter gene is placed under the control of the IFN-β minimal promoter fused to five NF-κB and AP-1-binding sites. Stimulation with a TLR7 agonist activates NF-κB and AP-1 which induces the production of SEAP. Levels of SEAP were determined by HEK-Blue Detection medium.
# The in vitro activity of compounds on TLR7 (human and mouse) and TLR8 (human only) reporter cell lines was assessed as follows. 5-(2-methoxy-4-(piperazin-1-ylmethyl)benzyl)-N4-pentyl-5H-pyrrolo[3,2-d]pyrimidine-2,4-diamine (Compound 1) is a compound used for comparison and has the structure shown below:
# HEK293-humanTLR7 (hTLR7), HEK293-mouseTLR7 (mTLR7) and HEK293-humanTLR8 (hTLR8) reporter cell lines were purchased from Invivogen and cell lines were maintained in the manufacturer's recommended culture medium with required supplemental antibiotics. On the day of assay, the cells were harvested with Accutase and counted by the Vi-CELL Cell Viability Analyzers. Cells were resuspended in HEK blue detection medium and a total of 10,000 cells were seeded in each well of a 384-well flat bottom plate. Serial dilutions of test compounds (1:4 serial dilution starting from 5 μM) were added into treatment wells and assay plates were cultured at 37° C. in a CO2 incubator for 24 hrs. The plates were then read by spectrophotometry at 640 nm. Data was fitted with non-linear regression analysis, using a log(inhibitor) vs. response-variable slope, 3-parameter fit with GraphPad Prism. There result was reported in Table 1 as EC50 (the midpoint of the curve, or concentration at which 50% of the maximum effect was observed).
row,SMILES,EC50 [nM]
1,"CCCCCNc1nc(N)nc2ccn(Cc3ccc(CN4CCNCC4)cc3OC)c12 [Compound 1, 5-(2-methoxy-4-(piperazin-1-ylmethyl)benzyl)-N4-pentyl-5H-pyrrolo[3,2-d]pyrimidine-2,4-diamine, reference compound]",338
2,"CCCCCNc1nc(N)nc2ccn(Cc3ccc(CN4CC5(CNCCO5)C4)cc3OC)c12 [Compound 10, 5-[[2-methoxy-4-(5-oxa-2,8-diazaspiro[3.5]nonan-2-ylmethyl)phenyl]methyl]-N4-pentyl-pyrrolo[3,2-d]pyrimidine-2,4-diamine]",342
3,"CCCCCNc1nc(N)nc2ccn(Cc3ccc(CN4CC(NC)C4)cc3OC)c12 [Compound 2, 5-(2-methoxy-4-((3-(methylamino)azetidin-1-yl)methyl)benzyl)-N4-pentyl-5H-pyrrolo[3,2-d]pyrimidine-2,4-diamine]",367
